pIC50: −log10 of the molar value.
Key:
[1] = test system: NCI-H1648 lung carcinoma cells; assay: Cell growth inhibition (CellTiter-Glo), NCI-H1648; type: cell-based; conditions: Homo sapiens, NCI-H1648, 72 h, 3 days
Text: Esophageal carcinoma cell line OE33 was purchased from ECACC European Collection of Cell Cultures (UK). Breast cancer cell line JIMT-1 and gastric carcinoma cell line MKN-45 were purchased from Deutsche Sammlung von Mikroorganismen and Zellkulturen GmbH (Germany); KPL-4, a human breast cancer cell line was kindly provided by Prof. J Kurebayashi (Kawasaki Medical School, Kurashiki, Japan). […] The LICR-LON-HN5 head and neck carcinoma cell line (HN5) was a gift from the Institute of Cancer Research, Surrey, U.K. HN5C12 was developed by single-cell cloning of HN5 followed by exposure to increasing concentrations of lapatinib. […] Cell growth inhibition was determined via CellTiter-Glo cell viability assays. […] BT474-J4 and HN5C12 were washed with PBS and plated in their culture media without lapatinib. […] ATP levels were determined by adding Cell Titer Glo0 (Promega), incubating for 20 minutes then the luminescent signal was read on the SpectraMax M5 plate with a 0.5 second integration time. Cell growth was calculated relative to vehicle (DMSO) treated control wells. […] Excess Over Highest Single Agent (EOHSA) is defined as a statistically significant improvement in the combination compared to the component monotherapies. […] Analysis was conducted using two-factor analysis of variance with interaction (model terms were dose of drug A, dose of drug B, and interaction between doses of drug A and B), followed by linear contrasts between each combination group and corresponding monotherapies. Analysis was conducted using SAS (version 9, provided by SAS Institute, Cary, N.C.). EOHSA at each dose was calculated as the minimum difference in average % inhibition between the combination and each monotherapy, from the appropriate ANOVA contrast. Since there are many comparisons for the % inhibition endpoint, p-value adjustment for multiple comparisons was performed. Hommel's procedure was implemented in order to improve the power while retaining […] Error Rate (FWE) control by using a sequentially rejective method. The p-values for both synergy and antagonism were calculated using this adjustment.

[2] = test system: NCI-H441 lung carcinoma cells; assay: Cell growth inhibition (CellTiter-Glo), NCI-H441; type: cell-based; conditions: Homo sapiens, NCI-H441, 72 h, 3 days
[3] = test system: HOP-92 lung carcinoma cells; assay: Cell growth inhibition (CellTiter-Glo), HOP-92; type: cell-based; conditions: Homo sapiens, HOP-92, 72 h, 3 days
Text: Esophageal carcinoma cell line OE33 was purchased from ECACC European Collection of Cell Cultures (UK). Breast cancer cell line JIMT-1 and gastric carcinoma cell line MKN-45 were purchased from Deutsche Sammlung von Mikroorganismen and Zellkulturen GmbH (Germany); KPL-4, a human breast cancer cell line was kindly provided by Prof. J Kurebayashi (Kawasaki Medical School, Kurashiki, Japan). […] The LICR-LON-HN5 head and neck carcinoma cell line (HN5) was a gift from the Institute of Cancer Research, Surrey, U.K. HN5C12 was developed by single-cell cloning of HN5 followed by exposure to increasing concentrations of lapatinib. […] Cell growth inhibition was determined via CellTiter-Glo cell viability assays. […] BT474-J4 and HN5C12 were washed with PBS and plated in their culture media without lapatinib. […] ATP levels were determined by adding Cell Titer Glo0 (Promega), incubating for 20 minutes then the luminescent signal was read on the SpectraMax M5 plate with a 0.5 second integration time. Cell growth was calculated relative to vehicle (DMSO) treated control wells. […] y=([…]) where A is the minimum response (ymin), B is the maximum response (ymax), c is the inflection point of the curve (EC50), d is the Hill coefficient, and x is the log10 compound concentration (moles/L). CI values were calculated with the interpolated IC50 values and the mutually non-exclusive equation derived by Chou and […](a)+Db/IC50(b)+(Da×Db)/(IC50(a)×IC50(b)) where IC50(a) is the IC50 of the inhibitor A; IC50(b) is the IC50 for the inhibitor B; […] Excess Over Highest Single Agent (EOHSA) is defined as a statistically significant improvement in the combination compared to the component monotherapies. […] See Borisy et al. (2003) or Hung et al. (1993) for examples and discussion. Analysis was conducted using two-factor analysis of variance with interaction (model terms were dose of drug A, dose of drug B, and interaction between doses of drug A and B), followed by linear contrasts between each combination group and corresponding monotherapies. Analysis was conducted using SAS (version 9, provided by SAS Institute, Cary, N.C.). EOHSA at each dose was calculated as the minimum difference in average % inhibition between the combination and each monotherapy, from the appropriate ANOVA contrast. Since there are many comparisons for the % inhibition endpoint, p-value adjustment for multiple comparisons was performed. Hommel's procedure was implemented in order to improve the power while retaining […] Error Rate (FWE) control by using a sequentially rejective method. The p-values for both synergy and antagonism were calculated using this adjustment.

[4] = test system: HT29 colon carcinoma cells; assay: Cell growth inhibition (CellTiter-Glo), HT29; type: cell-based; conditions: Homo sapiens, HT-29, 72 h, 3 days
Text: Esophageal carcinoma cell line OE33 was purchased from ECACC European Collection of Cell Cultures (UK). Breast cancer cell line JIMT-1 and gastric carcinoma cell line MKN-45 were purchased from Deutsche Sammlung von Mikroorganismen and Zellkulturen GmbH (Germany); KPL-4, a human breast cancer cell line was kindly provided by Prof. J Kurebayashi (Kawasaki Medical School, Kurashiki, Japan). […] The LICR-LON-HN5 head and neck carcinoma cell line (HN5) was a gift from the Institute of Cancer Research, Surrey, U.K. HN5C12 was developed by single-cell cloning of HN5 followed by exposure to increasing concentrations of lapatinib. […] Cell growth inhibition was determined via CellTiter-Glo cell viability assays. […] ATP levels were determined by adding Cell Titer Glo0 (Promega), incubating for 20 minutes then the luminescent signal was read on the SpectraMax M5 plate with a 0.5 second integration time. Cell growth was calculated relative to vehicle (DMSO) treated control wells. […] CI values were calculated with the interpolated IC50 values and the mutually non-exclusive equation derived by Chou and […](a)+Db/IC50(b)+(Da×Db)/(IC50(a)×IC50(b)) where IC50(a) is the IC50 of the inhibitor A; IC50(b) is the IC50 for the inhibitor B; […] […] EOHSA at each dose was calculated as the minimum difference in average % inhibition between the combination and each monotherapy, from the appropriate ANOVA contrast. […]

[5] = test system: BT474 breast carcinoma cells; assay: Cell growth inhibition (CellTiter-Glo), BT474; type: cell-based; conditions: Homo sapiens, BT-474, 72 h, 3 days
Text: Esophageal carcinoma cell line OE33 was purchased from ECACC European Collection of Cell Cultures (UK). Breast cancer cell line JIMT-1 and gastric carcinoma cell line MKN-45 were purchased from Deutsche Sammlung von Mikroorganismen and Zellkulturen GmbH (Germany); KPL-4, a human breast cancer cell line was kindly provided by Prof. J Kurebayashi (Kawasaki Medical School, Kurashiki, Japan). […] The LICR-LON-HN5 head and neck carcinoma cell line (HN5) was a gift from the Institute of Cancer Research, Surrey, U.K. HN5C12 was developed by single-cell cloning of HN5 followed by exposure to increasing concentrations of lapatinib. […] Cell growth inhibition was determined via CellTiter-Glo cell viability assays. […] BT474-J4 and HN5C12 were washed with PBS and plated in their culture media without lapatinib. […] ATP levels were determined by adding Cell Titer Glo0 (Promega), incubating for 20 minutes then the luminescent signal was read on the SpectraMax M5 plate with a 0.5 second integration time. Cell growth was calculated relative to vehicle (DMSO) treated control wells. […] EOHSA at each dose was calculated as the minimum difference in average % inhibition between the combination and each monotherapy, from the appropriate ANOVA contrast. […] The p-values for both synergy and antagonism were calculated using this adjustment.

BT474-J4 cells = assay: Cell apoptosis assays (Cell Death ELISA, Caspase-Glo 3/7), BT474-J4; type: cell-based, human; conditions: BT474-J4, presence of HGF (FIG. 4, FIG. 5B)
Experimental: Cell apoptosis was measured by both a cell death ELISA method, which measures DNA fragmentation, a hallmark of apoptosis; and Caspase-Glo® 3/7 assay which detects the activity of caspase 3/7, one of the execution enzymes for apoptosis in cells.
The Cell Death ELISA^Plus kit (Roche, Mannheim, Germany) was used according to the manufacturer's instructions. Cells were seeded in 96-well plates at 10,000 per well. After 24 h, cells were dosed and grown for an additional 48 h in RPMI 1640 with 10% FBS in 5% CO2 at 37° C. Cytoplasmic fractions of control and treated cells were transferred into streptavidin-coated 96-well plates and incubated with biotinylated mouse antihistone antibody and peroxidase-conjugated mouse anti-DNA antibody at room temperature for 2 h. Absorbance was determined at 405-490 nm using a Spectra Max Gemini microplate reader (Molecular Devices, Sunnyvale, Calif.).
The Caspase-Glo® 3/7 assay (Promega) is a homogeneous luminescent assay that measures caspase-3 and -7 activities. Cells were seeded in 96-well plates at 5,000 per well. […] Caspase 3/7 activity was detected by adding luminogenic caspase-3/7 substrate, which contains the tetrapeptide sequence DEVD, in a reagent optimized for caspase activity, luciferase activity and cell lysis, according to the manufacturer's instructions.

Row | SMILES | pIC50 ([1]; lung_H1648, +HGF (2 ng/mL)) | pIC50 ([1]; lung_H1648, −HGF) | pIC50 ([2]; lung_H441, +HGF (2 ng/mL)) | pIC50 ([2]; lung_H441, −HGF) | pIC50 ([3]; lung_HOP-92, +HGF (2 ng/mL)) | pIC50 ([3]; lung_HOP-92, −HGF) | pIC50 ([4]; colon_HT-29, +HGF (2 ng/mL)) | pIC50 ([4]; colon_HT-29, −HGF) | pIC50 ([5]; breast_BT474, +HGF (2 ng/mL)) | pIC50 ([5]; breast_BT474, −HGF) | apoptosis induction (DNA fragmentation and caspase 3/7 activation) (BT474-J4 cells)
1 | C#Cc1cccc(Nc2ncnc3cc(OCCOC)c(OCCOC)cc23)c1 [Erlotinib, N-(3-ethynylphenyl)-6,7-bis{[2-(methyloxy)ethyl]oxy}-4-quinazolinamine] | < 5.00 | < 5.00 | < 5.00 | < 5.00 | < 5.00 | < 5.00 | < 5.00 | < 5.00 | – | – | –
2 | CS(=O)(=O)CCNCc1ccc(-c2ccc3ncnc(Nc4ccc(OCc5cccc(F)c5)c(Cl)c4)c3c2)o1 [Lapatinib, N-(3-chloro-4-{[(3-fluorophenyl)methyl]oxy}phenyl)-6-[5-({[2-(methylsulfonyl)ethyl]amino}methyl)-2-furanyl]-4-quinazolinamine] | < 5.00 | 5.13 | < 5.00 | < 5.00 | < 5.00 | < 5.00 | – | – | 6.92 | 6.96 | only in BT474
